Source: paper PMC5456383 (PLoS ONE, 2017)
Like-named read-outs stand apart in the source and are kept apart here.

Legend:
[1] = concentration independent, cited from earlier work
Text: The relationship between antifungal in vivo susceptibility, dosages, drug concentrations within various body compartments and toxicological effects are not completely understood. […] For example, in sino-orbital aspergillosis systemic therapy may not be sufficient to penetrate the site of infection and reduce fungal burden. In addition, our work here is based upon total plasma concentra ...

[2] = tested on: invasive pulmonary aspergillosis; settings: cited from earlier work
[3] = caspofungin-treated patients with candidemia; cited from earlier work
[4] = design: Time at which steady state was achieved: dose or concentration left out as unconfirmed; settings: cited from earlier work
[5] = tested on: clinical isolates of A. felis from cats with invasive aspergillosis; settings: cited from earlier work
Text: Echinocandins have concentration-dependent activity against Aspergillus spp.

[6] = Population pharmacokinetic modeling of caspofungin plasma concentrations in healthy cats (HPLC-MS/MS, NONMEM)
Description: (§1) Cats were housed individually and acclimatized to the clinical environment for three days prior to the start of the study with free access to food and water.
(§2) For drug administration, a peripheral catheter (22G IV radiopaque catheter; OPTIVA®, Smiths Medical International Ltd, Lanchashire, UK) was placed into a cephalic vein.
(§3) Blood samples were immediately centrifuged (12, 000 g for 5 min) and plasma was stored at -80°C until assay.
Pharmacokinetic model development employed nonlinear mixed-effects modeling using NONMEM version 7.3 [17], with the Wings for NONMEM 7.3interface (http://wfn.sourceforge.net) and IFort compiler. […] Data manipulation and post-run processing of NONMEM output was conducted using the R data analysis language (Version 3.2.2) and the packages ggplot2, GGally, foreign, tidyr, Hmisc, gdata, doBy, plyr, grid, stringr with associated dependencies [17–28].
The base pharmacokinetic model was developed in a step-wise manner. Pharmacokinetic models were coded using the built-in ADVAN subroutines of NONMEM. Linear kinetic models with 1 and 2 compartments were evaluated. The First Order Conditional Estimation (FOCE) method was used to fit models. The base model was selected on the basis of mechanistic plausibility, visual inspection of goodness-of-fit diagnostic plots, the precision of parameter estimates (se% <30% for fixed, <50% for random effects parameters), and the lowest value of the Akaike’s information criterion (AIC; Eq 1) in accordance with the number of parameters and the final NONMEM derived objective function value (OBJ). The base model was also required to pass the covariance step.
Unless stated otherwise, population parameter variability (PPV) was represented using an exponential error model (Eq 2): Pj=TVP*e^ηj (2) where Pj is the individual value for the parameter in the j^th individual, TVP is the typical population value of P and ηj is an independent random variable with a mean of zero and variance ω^2. PPV was systematically examined on each fixed-effect parameter. Models with and without covariance for P were investigated using the OMEGA BLOCK functionality of NONMEM.
The influence of the additive component of the error was also examined by a comparison with a proportional only error model.

[7] = Tolerability of IV caspofungin in healthy cats (physical examination, blood count, biochemistry)
Description: as §1, §2, §3

[8] = cats, 1 mg/kg IV infusion over 1 h, two-compartment model, scaled to 4 kg

CC[C@H](C)C[C@H](C)CCCCCCCCC(=O)N[C@H]1C[C@@H](O)[C@@H](NCCN)NC(=O)[C@@H]2[C@@H](O)CCN2C(=O)[C@H]([C@H](O)CCN)NC(=O)[C@H]([C@H](O)[C@@H](O)c2ccc(O)cc2)NC(=O)[C@@H]2C[C@@H](O)CN2C(=O)[C@H]([C@@H](C)O)NC1=O [caspofungin, caspofungin acetate]
Unbound fraction in serum ([1]; human serum): 3–4%
Unbound fraction in serum ([1]; mouse serum): 3–4%
Fungal burden versus mice dosed with 1 mg/kg q6 h ([2]; mice dosed with 1 mg/kg q24 h or 2 mg/kg q48 h): significantly lower fungal burdens
Effect on fungal growth at higher doses ([2]; mice, 4 mg/kg, Cmax: MEC >20): paradoxical effect on fungal growth resulting in increased burdens
Frequency of chills [3]: 5.3%
Frequency of fever [3]: 7.5%
Frequency of liver enzyme elevations (ALT, AST or ALP) [3]: 13.9%
Frequency of nausea or vomiting [3]: 5.3%
Frequency of phlebitis [3]: 3.5%
Clearance in the typical 70 kg human [4]: 10 mL/min
Trough concentration at steady state ([4]; humans given 70 mg/kg of caspofungin daily): 2.57 ± 0.34 µg/mL
Time at which steady state was achieved ([4]; humans given of caspofungin daily): during the third week of administration
MEC ([5]; clinical isolates of A. felis from cats, all except one isolate): less than 0.06 μg/mL
MEC ([5]; one clinical isolate of A. felis): 2 µg/mL
clearance ([6]; both, domestic shorthair, plasma, iv, 1 mg/kg): 0.292 mL/min
Q (mL/h) * (WT/4)^0.75, inter-compartmental clearance, population estimate [6, 8]: 150 mL/h
V1 (mL) * (WT/4), central volume of distribution, population estimate [6, 8]: 214 mL
V2 (mL) * (WT/4), peripheral volume of distribution, population estimate [6, 8]: 143 mL
Time at which steady state was achieved ([6]; cats, daily IV dosing): approximately 72 h
Liver enzyme elevations ([7]; healthy cats, 1 mg/kg IV daily): did not occur in any cats
Tolerability ([7]; healthy cats, 1 mg/kg IV over 1 h, single and 7 daily doses): well tolerated
Changes on complete blood counts and multiple biochemical analyses ([7]; healthy cats, after consecutive daily dosing 1 mg/kg IV): no changes
Body temperature during minor transient hyperthermia ([7]; one cat, during the first infusion only, reference range 37.5–39.1°C): 39.6–39.8 °C
Diarrhoea ([7]; one cat, resolved within 24 h of the final infusion): mild transient diarrhoea
